Laboratory results published in paper PMC9458004, “Simultaneous Determination and Pharmacokinetics Study of Three Triterpenes from Sanguisorba officinalis L. in Rats by UHPLC–MS/MS” (Molecules, 2022).

Legend:
[1] = Pharmacokinetic study in rats after single oral administration of ZGI, DGE, PA or S. officinalis extract (plasma, UHPLC-MS/MS); type: in vivo, Sprague-Dawley rats; conditions: for conversion in vivo after oral administration (in words): rats, oral administration of the monomer, from plasma levels of ZGI, DGE, PA
Description: The UHPLC–MS/MS method was successfully used in the pharmacokinetic studies of the three analytes after single dose administration of ZGI, DGE, PA, and S. officinalis extract in rats (0.55 g/kg, equivalent to 0.03, 0.013, and 0.007 g/kg of ZGI, DGE, and PA, respectively). Based on the body surface area calculations of people and the animals and equivalent dose conversion calculations, the dosage of the rats was 0.55 g/kg.
The experimental protocol was permitted by the Animal Ethics Committee of Harbin Medical University (Approval Code: AECHMU20150021, Approval Date: 3 June 2015) and conformed to the principles for the Care and Use of Laboratory Animals. Twenty-four male Sprague-Dawley rats (weighting 200 ± 20 g), which were provided by the Laboratory Animal Center at Harbin Medical University (Harbin, China), were used for the pharmacokinetic study. The animals were maintained in a SPF-grade room on a 12 h light/dark cycle with a controlled temperature conditions (21 ± 2 °C) and relative humidity (50 ± 5%) before the experiment. During the adaptation process, all rats were provided with standard food and purified water each morning and evening. Each rat fasted for 12 h before giving the drug and was randomly divided into one of four groups (n = 6).
A single dose of the S. officinalis extract (0.55 g/kg, group I), ZGI (0.03 g/kg, group II), DGE ([…], group III), and PA (0.013 g/kg, group IV) was administrated to the rats. The S. officinalis extract was dissolved in water. A single dose of 0.55 g/kg of S. officinalis extract was administrated to the rats. Blood was obtained from the retinal venous plexus at 0, 0.083, 0.5, 1.0, 1.5, 2.0, 2.5, 3.0, 4.0, 6.0, 8.0, 12.0, and 24.0 h after dosing. The plasma was immediately separated by centrifugation at 8000 rpm for 4 min at −4 °C.
The maximum concentration (Cmax) and the time to attain it (Tmax) were observed directly from the measured data. The elimination rate constant (Ke) was calculated by linear regression of the terminal points in a semi-log plot of the plasma concentration against time. The area under plasma concentration–time curve (AUC0→t) to the last measurable plasma concentration (Ct) was estimated using the linear trapezoidal rule.
Calculate the amount of three compounds using linear regression from the standard curve. The pharmacokinetic parameters of the analytes were calculated with DAS 2.0 (Shanghai, China). All results were expressed as mean ± SD. The comparison of pharmacokinetic parameters was conducted using standard Student’s t-test. Differences between groups were assumed statistically significant for p values < 0.05.

[2] = Stability of the three analytes in rat plasma under various storage conditions; type: in vitro ADME; conditions: n = 6; for Stability (% RE) Post-Preparative: 12 h after sample preparation at 4 °C; for Stability (% RE) Short-Term / Stability (% RE) Three Freeze-Thaw: rat plasma; for Stability (% RE) Short-Term: 4 h at ambient temperature; for Stability (% RE) Three Freeze-Thaw: three freeze-thaw cycles at −20 °C
Experimental: The stability of rat plasma under different storage conditions was determined. […] All compounds maintained steady levels for […].
The stability of the three compounds in rat plasma, including freeze and thaw stability (three freeze-thaw cycles at −20 °C), long-term stability (storage for 2 weeks at −80 °C), room temperature stability (storage for 4 h at ambient temperature), and post-preparation stability (storage for 12 h after sample preparation at 4 °C), was tested at two QC levels with six replicates at each level. All stability testing QC samples were determined using the calibration curve of freshly prepared standard samples.

[3] = as above; type: in vitro ADME; conditions: storage for 2 weeks at −80 °C (b26 says −20 °C), n = 6
[4] = high QC (ZGI 2080, DGE 1840, PA 840.0 ng/mL)
[5] = low QC (ZGI 19.5, DGE 17.4, PA 7.8 ng/mL)

| Structure (SMILES) | conversion in vivo after oral administration (in words) [1] | Stability (% RE) Post-Preparative [2, 4] [% RE] | Stability (% RE) Post-Preparative [2, 5] [% RE] | Stability (% RE) Short-Term [2, 4] [% RE] | Stability (% RE) Short-Term [2, 5] [% RE] | Stability (% RE) Three Freeze-Thaw [2, 4] [% RE] | Stability (% RE) Three Freeze-Thaw [2, 5] [% RE] | Stability (% RE) Long-Term [3, 4] [% RE] | Stability (% RE) Long-Term [3, 5] [% RE] | Cmax ([1]; male, Sprague-Dawley, analyte ZGI in rat plasma, single oral dose of the row's substance (S. officinalis extract 0.55 g/kg, ZGI 0.03 g/kg), n = 6, mean ± SD) [ng/mL] | Tmax ([1]; male, Sprague-Dawley, analyte ZGI in rat plasma, single oral dose of the row's substance (extract 0.55 g/kg, ZGI 0.03 g/kg), n = 6) [h] | half-life ([1]; male, Sprague-Dawley, analyte ZGI in rat plasma, single oral dose of the row's substance (extract 0.55 g/kg, ZGI 0.03 g/kg), n = 6, read-out: t1/2 of ZGI (converted)) [h] |
| --- | --- | --- | --- | --- | --- | --- | --- | --- | --- | --- | --- | --- |
| C[C@@H]1CC[C@]2(C(=O)O)CC[C@]3(C)C(=CC[C@@H]4[C@@]5(C)CC[C@H](O)C(C)(C)[C@@H]5CC[C@]43C)[C@@H]2[C@]1(C)O [PA, pomolic acid] | cannot convert into ZGI and DGE | 13 | 7.1 | 3.1 | −5.0 | 5.2 | 12 | 7.6 | 13 |  |  |  |
| C[C@@H]1CC[C@]2(C(=O)O[C@@H]3O[C@H](CO)[C@@H](O)[C@H](O)[C@H]3O)CC[C@]3(C)C(=CC[C@@H]4[C@@]5(C)CC[C@H](O[C@@H]6OC[C@H](O)[C@H](O)[C@H]6O)C(C)(C)[C@@H]5CC[C@]43C)[C@@H]2[C@]1(C)O [ZGI, Ziyuglycoside I] | may be converted into DGE and PA | 6.4 | 9.2 | 2.4 | 14 | 2.8 | 6.2 | 3.4 | 15 | 678 ± 47 | 1.4 ± 0.2 | 11 ± 1 |
| CC1CCC2(C(=O)OC3OC(CO)C(O)C(O)C3O)CCC3(C)C(=CCC4C5(C)CCC(O)C(C)(C)C5CCC43C)C2C1(C)O [DGE, 3β,19α-dihydroxyurs-12-en-28-oic-acid 28-β-D-glucopyranosyl ester] | may be transformed into PA | 7.7 | 14 | 0.70 | 8.4 | 3.5 | 3.3 | 5.8 | 9.6 |  |  |  |
